Reference: PubChem BioAssay (NCI)
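Compound exposure: 48 hours, 5 concentrations, 96-well plates. TGI denotes the concentration required for complete inhibition of growth.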

Key:
Assay in all cases: DTP human tumour cell line panel, 48 h
[1] = system: 786-0 renal
[2] = system: A549 NSCLC
[3] = system: BT-549 breast
[4] = system: CCRF-CEM leukemia
[5] = system: COLO 205 colon
[6] = system: DU-145 prostate
[7] = system: EKVX NSCLC
[8] = system: HCC-2998 colon
[9] = system: HCT-116 colon
[10] = system: HCT-15 colon
[11] = system: HL-60(TB) leukemia
[12] = system: HOP-62 NSCLC
[13] = system: HT29 colon
[14] = system: IGROV1 ovarian
[15] = system: K-562 leukemia
[16] = system: KM12 colon
[17] = system: LOX IMVI melanoma
[18] = system: M14 melanoma
[19] = system: MCF7 breast
[20] = system: MDA-MB-231 breast
[21] = system: MDA-MB-435
[22] = system: MDA-N
[23] = system: MOLT-4 leukemia
[24] = system: NCI-H23 lung
[25] = system: NCI-H460 lung
[26] = system: NCI-H522 lung
[27] = system: OVCAR-3 ovarian
[28] = system: OVCAR-4 ovarian
[29] = system: OVCAR-5 ovarian
[30] = system: OVCAR-8 ovarian
[31] = system: PC-3 prostate
[32] = system: SF-268 CNS
[33] = system: SF-295 CNS
[34] = system: SF-539 CNS
[35] = system: SK-MEL-28 melanoma
[36] = system: SK-MEL-5 melanoma
[37] = system: SK-OV-3 ovarian
[38] = system: SN12C renal
[39] = system: SNB-19 CNS
[40] = system: SNB-75 CNS
[41] = system: SR leukemia
[42] = system: SW-620 colon
[43] = system: T-47D breast
[44] = system: TK-10 renal
[45] = system: U251 CNS
[46] = system: UACC-257 melanoma
[47] = system: UACC-62 melanoma
[48] = system: UO-31 renal
[49] = system: A498 renal
[50] = system: ACHN renal
[51] = system: CAKI-1 renal
[52] = system: HOP-92 NSCLC
[53] = system: HS 578T breast
[54] = system: MALME-3M melanoma
[55] = system: NCI-H226 lung
[56] = system: NCI/ADR-RES ovarian
[57] = system: RPMI-8226 leukemia
[58] = system: RXF 393 renal
[59] = system: SK-MEL-2 melanoma

## SC[C@@H]1COC[C@H](CS)S1
[1]
  TGI: > 100 µM
[2]
  TGI: > 100 µM
[3]
  TGI: > 100 µM
[4]
  TGI: > 100 µM
[5]
  TGI: > 100 µM
[6]
  TGI: > 100 µM
[7]
  TGI: > 100 µM
[8]
  TGI: > 100 µM
[9]
  TGI: > 100 µM
[10]
  TGI: > 100 µM
[11]
  TGI: > 100 µM
[12]
  TGI: > 100 µM
[13]
  TGI: > 100 µM
[14]
  TGI: > 100 µM
[15]
  TGI: > 100 µM
[16]
  TGI: > 100 µM
[17]
  TGI: > 100 µM
[18]
  TGI: > 100 µM
[19]
  TGI: > 100 µM
[20]
  TGI: > 100 µM
[21]
  TGI: > 100 µM
[22]
  TGI: > 100 µM
[23]
  TGI: > 100 µM
[24]
  TGI: > 100 µM
[25]
  TGI: > 100 µM
[26]
  TGI: > 100 µM
[27]
  TGI: > 100 µM
[28]
  TGI: > 100 µM
[29]
  TGI: > 100 µM
[30]
  TGI: > 100 µM
[31]
  TGI: > 100 µM
[32]
  TGI: > 100 µM
[33]
  TGI: > 100 µM
[34]
  TGI: > 100 µM
[35]
  TGI: > 100 µM
[36]
  TGI: > 100 µM
[37]
  TGI: > 100 µM
[38]
  TGI: > 100 µM
[39]
  TGI: > 100 µM
[40]
  TGI: > 100 µM
[41]
  TGI: > 100 µM
[42]
  TGI: > 100 µM
[43]
  TGI: > 100 µM
[44]
  TGI: > 100 µM
[45]
  TGI: > 100 µM
[46]
  TGI: > 100 µM
[47]
  TGI: > 100 µM
[48]
  TGI: > 100 µM

## Cc1nc2c(=O)[nH]c3ccccc3c2o1
[1]
  TGI: > 100 µM
[49]
  TGI: > 100 µM
[2]
  TGI: > 100 µM
[50]
  TGI: > 100 µM
[3]
  TGI: > 100 µM
[51]
  TGI: > 100 µM
[4]
  TGI: > 100 µM
[5]
  TGI: > 100 µM
[6]
  TGI: > 100 µM
[7]
  TGI: > 100 µM
[8]
  TGI: > 100 µM
[9]
  TGI: > 100 µM
[10]
  TGI: > 100 µM
[11]
  TGI: > 100 µM
[12]
  TGI: > 100 µM
[52]
  TGI: > 100 µM
[53]
  TGI: > 100 µM
[13]
  TGI: > 100 µM
[14]
  TGI: > 100 µM
[16]
  TGI: > 100 µM
[17]
  TGI: > 100 µM
[18]
  TGI: > 100 µM
[54]
  TGI: > 100 µM
[19]
  TGI: > 100 µM
[20]
  TGI: > 100 µM
[21]
  TGI: > 100 µM
[22]
  TGI: > 100 µM
[55]
  TGI: > 100 µM
[24]
  TGI: > 100 µM
[25]
  TGI: > 100 µM
[56]
  TGI: > 100 µM
[27]
  TGI: > 100 µM
[28]
  TGI: > 100 µM
[29]
  TGI: > 100 µM
[30]
  TGI: > 100 µM
[31]
  TGI: > 100 µM
[57]
  TGI: > 100 µM
[58]
  TGI: > 100 µM
[32]
  TGI: > 100 µM
[33]
  TGI: > 100 µM
[34]
  TGI: > 100 µM
[59]
  TGI: > 100 µM
[35]
  TGI: > 100 µM
[36]
  TGI: > 100 µM
[37]
  TGI: > 100 µM
[38]
  TGI: > 100 µM
[39]
  TGI: > 100 µM
[40]
  TGI: > 100 µM
[42]
  TGI: > 100 µM
[43]
  TGI: > 100 µM
[44]
  TGI: > 100 µM
[45]
  TGI: > 100 µM
[46]
  TGI: > 100 µM
[47]
  TGI: > 100 µM
[48]
  TGI: > 100 µM

## COc1ccc(C2=NN(C(=O)c3ccccc3)C(O)(c3cc(F)c(Cl)cc3Cl)C2)cc1OC (stereo not drawn)
[1]
  TGI: > 100 µM
[49]
  TGI: > 100 µM
[2]
  TGI: > 100 µM
[50]
  TGI: > 100 µM
[3]
  TGI: > 100 µM
[51]
  TGI: > 100 µM
[4]
  TGI: > 100 µM
[5]
  TGI: > 100 µM
[6]
  TGI: > 100 µM
[7]
  TGI: > 100 µM
[8]
  TGI: > 100 µM
[9]
  TGI: > 100 µM
[10]
  TGI: > 100 µM
[11]
  TGI: > 100 µM
[12]
  TGI: 43 µM
[52]
  TGI: 78.9 µM
[53]
  TGI: > 100 µM
[13]
  TGI: > 100 µM
[14]
  TGI: > 100 µM
[15]
  TGI: > 100 µM
[16]
  TGI: > 100 µM
[17]
  TGI: > 100 µM
[18]
  TGI: > 100 µM
[54]
  TGI: > 100 µM
[19]
  TGI: > 100 µM
[20]
  TGI: > 100 µM
[21]
  TGI: > 100 µM
[22]
  TGI: > 100 µM
[23]
  TGI: > 100 µM
[55]
  TGI: > 100 µM
[24]
  TGI: > 100 µM
[25]
  TGI: > 100 µM
[26]
  TGI: > 100 µM
[56]
  TGI: > 100 µM
[27]
  TGI: 69.3 µM
[28]
  TGI: 53.1 µM
[29]
  TGI: > 100 µM
[30]
  TGI: > 100 µM
[31]
  TGI: > 100 µM
[57]
  TGI: > 100 µM
[58]
  TGI: 55.5 µM
[32]
  TGI: > 100 µM
[33]
  TGI: > 100 µM
[34]
  TGI: > 100 µM
[59]
  TGI: 91.7 µM
[35]
  TGI: > 100 µM
[36]
  TGI: > 100 µM
[37]
  TGI: 48.8 µM
[38]
  TGI: > 100 µM
[39]
  TGI: > 100 µM
[42]
  TGI: > 100 µM
[43]
  TGI: > 100 µM
[44]
  TGI: 98.1 µM
[45]
  TGI: > 100 µM
[46]
  TGI: > 100 µM
[47]
  TGI: > 100 µM
[48]
  TGI: 89.4 µM

## COc1cc(COC(=O)N2CCCCC2C(=O)O)c([N+](=O)[O-])cc1OC (stereo not drawn)
[1]
  TGI: > 100 µM
[49]
  TGI: > 100 µM
[2]
  TGI: > 100 µM
[50]
  TGI: > 100 µM
[3]
  TGI: > 100 µM
[4]
  TGI: > 100 µM
[5]
  TGI: > 100 µM
[6]
  TGI: > 100 µM
[7]
  TGI: > 100 µM
[8]
  TGI: > 100 µM
[9]
  TGI: > 100 µM
[10]
  TGI: > 100 µM
[11]
  TGI: > 100 µM
[12]
  TGI: > 100 µM
[52]
  TGI: > 100 µM
[53]
  TGI: > 100 µM
[13]
  TGI: > 100 µM
[14]
  TGI: > 100 µM
[15]
  TGI: > 100 µM
[16]
  TGI: > 100 µM
[18]
  TGI: > 100 µM
[54]
  TGI: > 100 µM
[19]
  TGI: > 100 µM
[21]
  TGI: > 100 µM
[22]
  TGI: > 100 µM
[23]
  TGI: > 100 µM
[55]
  TGI: > 100 µM
[24]
  TGI: > 100 µM
[25]
  TGI: > 100 µM
[56]
  TGI: > 100 µM
[27]
  TGI: > 100 µM
[29]
  TGI: > 100 µM
[30]
  TGI: > 100 µM
[31]
  TGI: > 100 µM
[57]
  TGI: > 100 µM
[58]
  TGI: > 100 µM
[32]
  TGI: > 100 µM
[33]
  TGI: > 100 µM
[34]
  TGI: > 100 µM
[35]
  TGI: > 100 µM
[36]
  TGI: > 100 µM
[37]
  TGI: > 100 µM
[38]
  TGI: > 100 µM
[39]
  TGI: > 100 µM
[40]
  TGI: > 100 µM
[41]
  TGI: > 100 µM
[42]
  TGI: > 100 µM
[43]
  TGI: > 100 µM
[44]
  TGI: > 100 µM
[45]
  TGI: > 100 µM
[46]
  TGI: > 100 µM
[47]
  TGI: > 100 µM
[48]
  TGI: > 100 µM
